In PMC5677090, “Multiple Behavior Phenotypes of the Fragile-X Syndrome Mouse Model Respond to Chronic Inhibition of Phosphodiesterase-4D (PDE4D)” (Scientific Reports, 2017):

Biological target: T1, PDE4B (Mus musculus, UniProt Q8VBU5)
T1 sequence (Q8VBU5 1-721): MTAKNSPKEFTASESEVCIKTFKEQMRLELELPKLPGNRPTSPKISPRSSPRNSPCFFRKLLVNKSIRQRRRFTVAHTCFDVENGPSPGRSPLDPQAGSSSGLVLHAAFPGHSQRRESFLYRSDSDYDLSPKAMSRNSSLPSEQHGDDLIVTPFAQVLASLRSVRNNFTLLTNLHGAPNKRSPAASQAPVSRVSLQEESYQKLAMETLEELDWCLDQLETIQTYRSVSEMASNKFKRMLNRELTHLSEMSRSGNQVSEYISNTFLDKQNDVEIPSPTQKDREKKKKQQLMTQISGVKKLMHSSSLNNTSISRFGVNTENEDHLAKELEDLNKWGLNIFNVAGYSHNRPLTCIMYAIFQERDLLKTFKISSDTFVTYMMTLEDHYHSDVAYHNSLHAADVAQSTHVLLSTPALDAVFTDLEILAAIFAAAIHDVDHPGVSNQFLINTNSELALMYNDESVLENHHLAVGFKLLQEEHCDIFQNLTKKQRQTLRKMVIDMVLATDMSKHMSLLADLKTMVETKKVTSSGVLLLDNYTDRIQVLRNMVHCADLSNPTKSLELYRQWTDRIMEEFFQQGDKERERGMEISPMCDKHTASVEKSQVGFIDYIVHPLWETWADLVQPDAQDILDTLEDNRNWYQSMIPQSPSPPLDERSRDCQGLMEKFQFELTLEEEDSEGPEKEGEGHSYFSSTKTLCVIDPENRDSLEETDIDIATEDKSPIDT
Assay: PDE4B inhibition IC50, selectivity comparison (assay details not given)
Assay type: biochemical

Work on `O=C(O)Cc1ccc(Cc2cc(-c3cccc(Cl)c3)nc(C(F)(F)F)c2)cc1` [BPN14770] yielded an IC50 of 2120 nM.
